{
  "source": "paper PMC4335020",
  "about": "“Single Oral Dose Pharmacokinetics of Decursin and Decursinol Angelate in Healthy Adult Men and Women” (PLoS ONE, 2015)",
  "test": "Single oral dose human plasma pharmacokinetics of D, DA and DOH after Cogni.Q",
  "type": "in vivo",
  "source_text": "Ten healthy male and 10 female subjects were recruited by public announcement in Amarillo, TX, from January 2013 to April 2013 (see Fig. 1 CONSORT diagram). The sample size for each gender was chosen without power calculation due to the lack of prior knowledge of PK parameter variance in humans. After receiving informed consent verbally and in writing, the health status of each candidate was confirmed by health questionnaire, plasma biochemistry (hepatic and renal functions), complete blood cell count (CBC), and a physical examination by a participating academic physician. Subjects with diabetes, or pregnant, perinatal and breastfeeding women were excluded. For the 48 hours preceding study visit until the final blood draw, all subjects were instructed to avoid taking any prescription or nonprescription drugs, vitamins, and herbal/dietary supplements. Each subject was compensated for participating in the study per TTUHSC IRB approved rate.\nEligible subjects arrived at our clinical facility at 0700 (7:00 am) on the test day after a fast beginning at 2200 (10:00 pm) the previous night. After a brief review of vital signs, the nurse placed an intravenous (IV) line with saline drip in one arm of each subject. A baseline pre-dose (hour 0) blood sample was drawn through the IV line; after that subjects swallowed four Cogni.Q vegicaps with 240 mL of water at hour 0 under direct supervision. Subjects stayed at the clinical facility in their room for the next 12 hours, returning at 24 and 48 hours. Blood was drawn at baseline (hour 0) and at 0.5, 1, 2, 3, 4, 6, 8, 12, 24 and 48 hours after dosing into Vacutainer Blood Collection Tube (Becton-Dickinson, Franklin Lakes, NJ. Product Number: 367874, Sodium heparin was used as anti-coagulant). Water was allowed as desired except for within the first hour after Cogni.Q consumption. All subjects received standardized meals at post-dose hours 4.5 and 9.5 but no food was allowed for at least the first 4 hours post-dose.\nPlasma was prepared by centrifuging the heparinized blood at 1000 g for 15 minutes at room temperature. Urine samples (40mL) were collected within time spans of 0–4, 4–8, 8–12 and 12–24 hours (total volume of urine was recorded). All plasma and urine samples were put on dry ice immediately and then stored at -80°C freezer until analysis.\nPlasma samples were extracted with a validated solid supported liquid extraction (SLE) method facilitated with a positive pressure manifold (Biotage, Charlotte, NC). Briefly, 100 μL of plasma sample was spiked with 5 μL of 10 ng/μL prednisolone (IS), diluted with 200 μL of LC-MS grade water, mixed and loaded onto ISOLUTE SLE+ 400 μL Array Well cartridges (Biotage, Charlotte, NC). A pulse of minimum positive pressure was applied to facilitate the samples absorption into the cartridges. After the samples were allowed to absorb for 5 min, the compounds were eluted with 2×500 μL tert-butyl methyl ether. The eluent was dried in a Speedvac and the resulting residue was reconstituted in 50 μL of methanol for UHPLC-MS/MS analysis.\nEight-point calibration curves were constructed for D, DA and DOH, at concentrations of 0.1, 0.5, 1, 5, 10, 20, 50 and 100 μg/L for D and DA, and at concentrations of 1, 5, 10, 50, 100, 200, 500 and 1000 μg/L for DOH, respectively. The linear range was 0.1–100 μg/L (0.3–300 nmol/L), 0.1–100 μg/L (0.3–300 nmol/L) and 1–1000 μg/L (4–4000 nmol/L) for D, DA and DOH, respectively. The inter- and intra-assay CV were lower than 6.5% and the accuracy was between 90–105%. Calibration curve was run for each batch of samples analyzed. The mean calibration curve correlation coefficient (r) for D, DA and DOH was 0.999, 0.999 and 0.998, respectively (data from 7–10 calibration curves). In addition, 70% of the plasma samples were extracted and analyzed twice, the data from two replicate analyses were nearly identical and combined for final data analyses and presentation. […]",
  "note": "Read-outs that look alike come from different tables or passages of the source.",
  "data": [
    {"smiles": "CC1(C)Oc2cc3oc(=O)ccc3cc2C[C@@H]1O", "note": "[DOH, decursinol]", "values": [
      {"measurement": "Cmax", "setting": "both sexes, human, plasma, oral, 4 Cogni.Q vegicaps, n=20 (S1 Table), read-out: Cmax, nM, Grand Mean", "value": 2480, "unit": "nM"},
      {"measurement": "Tmax", "setting": "both sexes, human, plasma, oral, 4 Cogni.Q vegicaps, n=20 (S1 Table), read-out: Tmax, h, Grand Mean", "value": 3.3, "unit": "h"},
      {"measurement": "half-life", "setting": "both sexes, human, plasma, oral, all subjects, outliers excluded (S1 Table), read-out: Terminal t1/2, h, Grand Mean (converted)", "value": 7.4, "unit": "h"},
      {"measurement": "Cmax", "setting": "both sexes, human, plasma, oral, human subjects, read-out: plasma C max, average value", "value": 2500, "unit": "nM"},
      {"measurement": "AUC(0-t)", "setting": "both sexes, human, plasma, oral, n=20 (S1 Table), read-out: AUC0-48h, Grand Mean", "value": 27600, "unit": "nmol·h/L"},
      {"measurement": "Cmax", "setting": "both sexes, human, plasma, oral, range over human subjects, read-out: plasma C max, range in human subjects", "value": "1300 to 4000", "unit": "nM"},
      {"measurement": "Cmax", "setting": "both sexes, human, plasma, po, all human subjects n = 20, single oral dose 4 Cogni.Q vegicaps (119 mg D, 77 mg DA), plasma, read-out: Cmax, nmol/L Mean (SD)", "value": 2480, "unit": "nM"},
      {"measurement": "AUC(0-t)", "setting": "both sexes, human, plasma, po, all human subjects n = 20, single oral dose Cogni.Q, plasma (Table 2), read-out: AUC0–48h, nmol/L, Mean (SD)", "value": 27600, "unit": "nmol·h/L"},
      {"measurement": "AUC(0-t)", "setting": "both sexes, human, twenty healthy subjects, single oral dose Cogni.Q, plasma (abstract), read-out: mean area under the curve (AUC0-48h)", "value": 27600, "unit": "nmol·h/L"},
      {"measurement": "Tmax", "setting": "both sexes, all human subjects n = 20, single oral dose 4 Cogni.Q vegicaps (119 mg D, 77 mg DA), plasma, read-out: Tmax, h, Mean (SD)", "value": 3.3, "unit": "h"},
      {"measurement": "half-life", "setting": "both sexes, all human subjects, four outlier subjects excluded, single oral dose Cogni.Q, plasma, read-out: Terminal t1/2, h, Mean (SD) (converted)", "value": 7.4, "unit": "h"},
      {"measurement": "AUC(0-t)", "setting": "female, human, plasma, oral, 4 Cogni.Q vegicaps, Women n=10 (S1 Table), read-out: AUC0-48h, Mean, F", "value": 32700, "unit": "nmol·h/L"},
      {"measurement": "Cmax", "setting": "female, human, plasma, oral, 4 Cogni.Q vegicaps, Women n=10 (S1 Table), read-out: Cmax, nM, Mean, F", "value": 2610, "unit": "nM"},
      {"measurement": "Tmax", "setting": "female, human, plasma, oral, Women n=10 (S1 Table), read-out: Tmax, h, Mean, F", "value": 4.1, "unit": "h"},
      {"measurement": "half-life", "setting": "female, human, plasma, oral, Women, outliers excluded (S1 Table), read-out: Terminal t1/2, h, Mean, F (converted)", "value": 8.3, "unit": "h"},
      {"measurement": "AUC(0-t)", "setting": "female, human, plasma, po, Women N = 10, single oral dose Cogni.Q, plasma, read-out: AUC0–48h, h.nmol/L Mean (SD)", "value": 32700, "unit": "nmol·h/L"},
      {"measurement": "Cmax", "setting": "female, human, plasma, po, Women N = 10, single oral dose Cogni.Q, plasma, read-out: Cmax, nmol/L, Mean (SD)", "value": 2610, "unit": "nM"},
      {"measurement": "Tmax", "setting": "female, human, plasma, po, Women N = 10, single oral dose Cogni.Q, plasma, read-out: Tmax, h, Mean (SD)", "value": 4.1, "unit": "h"},
      {"measurement": "half-life", "setting": "female, human, plasma, po, Women, outlier subjects excluded, single oral dose Cogni.Q, plasma, read-out: T1/2, h, terminal Mean (SD) (converted)", "value": 8.3, "unit": "h"},
      {"measurement": "half-life", "setting": "human, plasma, oral, 4 Cogni.Q vegicaps, subject S1 (115 lb), outlier, excluded from means, read-out: Terminal t1/2, h (converted)", "value": 9.9, "unit": "h"},
      {"measurement": "AUC(0-t)", "setting": "human, plasma, oral, 4 Cogni.Q vegicaps, subject S1 (115 lb), read-out: AUC0-48h", "value": 17600, "unit": "nmol·h/L"},
      {"measurement": "Cmax", "setting": "human, plasma, oral, 4 Cogni.Q vegicaps, subject S1 (115 lb), read-out: Cmax", "value": 2380, "unit": "nM"},
      {"measurement": "Tmax", "setting": "human, plasma, oral, 4 Cogni.Q vegicaps, subject S1 (115 lb), read-out: Tmax", "value": 3, "unit": "h"},
      {"measurement": "AUC(0-t)", "setting": "human, plasma, oral, 4 Cogni.Q vegicaps, subject S2 (194 lb), read-out: AUC0-48h", "value": 25000, "unit": "nmol·h/L"},
      {"measurement": "Cmax", "setting": "human, plasma, oral, 4 Cogni.Q vegicaps, subject S2 (194 lb), read-out: Cmax", "value": 2390, "unit": "nM"},
      {"measurement": "half-life", "setting": "human, plasma, oral, 4 Cogni.Q vegicaps, subject S2 (194 lb), read-out: Terminal t1/2, h (converted)", "value": 9.2, "unit": "h"},
      {"measurement": "Tmax", "setting": "human, plasma, oral, 4 Cogni.Q vegicaps, subject S2 (194 lb), read-out: Tmax", "value": 4, "unit": "h"},
      {"measurement": "half-life", "setting": "human, plasma, oral, 4 Cogni.Q vegicaps, subject S3 (170 lb), outlier, excluded from means, read-out: Terminal t1/2, h (converted)", "value": 5.2, "unit": "h"},
      {"measurement": "AUC(0-t)", "setting": "human, plasma, oral, 4 Cogni.Q vegicaps, subject S3 (170 lb), read-out: AUC0-48h", "value": 8310, "unit": "nmol·h/L"},
      {"measurement": "Cmax", "setting": "human, plasma, oral, 4 Cogni.Q vegicaps, subject S3 (170 lb), read-out: Cmax", "value": 1560, "unit": "nM"},
      {"measurement": "Tmax", "setting": "human, plasma, oral, 4 Cogni.Q vegicaps, subject S3 (170 lb), read-out: Tmax", "value": 6, "unit": "h"},
      {"measurement": "AUC(0-t)", "setting": "human, plasma, oral, 4 Cogni.Q vegicaps, subject S4 (170 lb), read-out: AUC0-48h", "value": 63700, "unit": "nmol·h/L"},
      {"measurement": "Cmax", "setting": "human, plasma, oral, 4 Cogni.Q vegicaps, subject S4 (170 lb), read-out: Cmax", "value": 2680, "unit": "nM"},
      {"measurement": "half-life", "setting": "human, plasma, oral, 4 Cogni.Q vegicaps, subject S4 (170 lb), read-out: Terminal t1/2, h (converted)", "value": 11.1, "unit": "h"},
      {"measurement": "Tmax", "setting": "human, plasma, oral, 4 Cogni.Q vegicaps, subject S4 (170 lb), read-out: Tmax", "value": 6, "unit": "h"},
      {"measurement": "AUC(0-t)", "setting": "human, plasma, oral, 4 Cogni.Q vegicaps, subject S5 (161 lb), read-out: AUC0-48h", "value": 19200, "unit": "nmol·h/L"},
      {"measurement": "Cmax", "setting": "human, plasma, oral, 4 Cogni.Q vegicaps, subject S5 (161 lb), read-out: Cmax", "value": 1530, "unit": "nM"},
      {"measurement": "half-life", "setting": "human, plasma, oral, 4 Cogni.Q vegicaps, subject S5 (161 lb), read-out: Terminal t1/2, h (converted)", "value": 7.7, "unit": "h"},
      {"measurement": "Tmax", "setting": "human, plasma, oral, 4 Cogni.Q vegicaps, subject S5 (161 lb), read-out: Tmax", "value": 2, "unit": "h"},
      {"measurement": "AUC(0-t)", "setting": "human, plasma, oral, 4 Cogni.Q vegicaps, subject S6 (120 lb), read-out: AUC0-48h", "value": 37500, "unit": "nmol·h/L"},
      {"measurement": "Cmax", "setting": "human, plasma, oral, 4 Cogni.Q vegicaps, subject S6 (120 lb), read-out: Cmax", "value": 2770, "unit": "nM"},
      {"measurement": "half-life", "setting": "human, plasma, oral, 4 Cogni.Q vegicaps, subject S6 (120 lb), read-out: Terminal t1/2, h (converted)", "value": 7.2, "unit": "h"},
      {"measurement": "Tmax", "setting": "human, plasma, oral, 4 Cogni.Q vegicaps, subject S6 (120 lb), read-out: Tmax", "value": 4, "unit": "h"},
      {"measurement": "AUC(0-t)", "setting": "human, plasma, oral, 4 Cogni.Q vegicaps, subject S7 (180 lb), read-out: AUC0-48h", "value": 51800, "unit": "nmol·h/L"},
      {"measurement": "Cmax", "setting": "human, plasma, oral, 4 Cogni.Q vegicaps, subject S7 (180 lb), read-out: Cmax", "value": 3970, "unit": "nM"},
      {"measurement": "half-life", "setting": "human, plasma, oral, 4 Cogni.Q vegicaps, subject S7 (180 lb), read-out: Terminal t1/2, h (converted)", "value": 6.5, "unit": "h"},
      {"measurement": "Tmax", "setting": "human, plasma, oral, 4 Cogni.Q vegicaps, subject S7 (180 lb), read-out: Tmax", "value": 6, "unit": "h"},
      {"measurement": "AUC(0-t)", "setting": "human, plasma, oral, 4 Cogni.Q vegicaps, subject S8 (160 lb), read-out: AUC0-48h", "value": 30400, "unit": "nmol·h/L"},
      {"measurement": "Cmax", "setting": "human, plasma, oral, 4 Cogni.Q vegicaps, subject S8 (160 lb), read-out: Cmax", "value": 2530, "unit": "nM"},
      {"measurement": "half-life", "setting": "human, plasma, oral, 4 Cogni.Q vegicaps, subject S8 (160 lb), read-out: Terminal t1/2, h (converted)", "value": 5.5, "unit": "h"},
      {"measurement": "Tmax", "setting": "human, plasma, oral, 4 Cogni.Q vegicaps, subject S8 (160 lb), read-out: Tmax", "value": 3, "unit": "h"},
      {"measurement": "AUC(0-t)", "setting": "human, plasma, oral, 4 Cogni.Q vegicaps, subject S9 (158 lb), read-out: AUC0-48h", "value": 17700, "unit": "nmol·h/L"},
      {"measurement": "Cmax", "setting": "human, plasma, oral, 4 Cogni.Q vegicaps, subject S9 (158 lb), read-out: Cmax", "value": 2110, "unit": "nM"}
    ]}
  ]
}
